Assay results reported in publication PMC11602703 (Frontiers in Pharmacology, 2024).
Values joined by “and” are separate entries in the source; they are usually repeats but may differ in a detail not shown here. Equal values may be shown once. “Also recorded” adds a separate entry of the source. Read-outs that look alike come from different tables or passages of the source.

Tests used:
HCT116 cells [1] = assay: Cell cycle analysis by flow cytometry (PI), HCT116; assay type: cell-based, human; conditions: for sub-G0/G1, HCT116 cells, plus SAINT-Protein: 72 h, transfected with SAINT-Protein; for % of cells G0/G1, HCT116 cells / % of cells G2/M, HCT116 cells / % of cells S, HCT116 cells / % of cells sub G0/G1, HCT116 cells: 72 hr, E7 […], 5FU 5µM, with or without SAINT-Protein
Description: (§1) A slight opalescence indicates optimal mixing of the components. […] All experiments were conducted in duplicate. […] Quantitative measurements of the cell cycle phase distribution were performed by flow cytometry. Cells were then suspended in 0.5 mL of hypotonic fluorochrome solution (50 μg/mL PI, 0.1% sodium citrate, 0.1% Triton X-100). […] The percentages of nuclei in the different phases of the cell cycle (G0/G1, S and G2/M) were calculated using a DNA cell cycle analysis software (Cell-Fit, Becton Dickinson). A minimum of 10^4 cells was analyzed for each sample.

A2780 cells [2] = assay: Cell cycle analysis by flow cytometry (PI), A2780; assay type: cell-based, human; conditions: 72 hr, Supplementary Figure S1
Description: as §1

recombinant hTS = molecular target: T1, recombinant hTS (Homo sapiens, UniProt P04818); assay: hTS enzyme inhibition, spectrophotometric assay at 340 nm; assay type: biochemical; conditions: for IC50: IC50 Recombinant hTS, 100 nM hTS, 50 µM mTHF, 110 µM dUMP, 60 min incubation at 37°C, standard error ±20%; for Ki: Ki (text of b40)
T1 construct: made in house; host or cells: E. coli BL21 (DE3), pQE80L plasmid

HT29 cells = assay: Cell growth, crystal violet assay, HT29; assay type: cell-based, human; conditions: for effect of SAINT-Protein transfection on cell survival, HT29: 72 h, Figure 5C
HCT116 cells [3] = assay: Cell growth, crystal violet assay, HCT116; assay type: cell-based; conditions: Homo sapiens, HCT-116, 72 h, read-out: Cellular IC50 values HCT116
[4] = tested on: ovarian and colorectal cancer cell lines (A2780, A2780/CP, IGROV-1, HT29, HCT116); assay: Cell growth, crystal violet assay, statements over several cancer cell lines; assay type: cell-based, human; conditions: for IC50: Homo sapiens
IGROV-1 cells = assay: cells; assay type: cell-based; conditions: Homo sapiens, IGROV-1, 72 h, read-out: Cellular IC50 values IGROV-1, 72 h-treatment, compound alone
A2780/CP cells = assay: Cell growth, crystal violet assay, A2780/CP; assay type: cell-based, human
human pancreatic cancer = conditions: compared with 5-FU; ref Costantino et al., 2022; cited from earlier work
A2780 cells [5] = assay: Cell growth, crystal violet assay, A2780; conditions: for IC50: Homo sapiens, A2780, 72 h
[6] = tested on: ABC transporters (P-glycoprotein, P-gp) and BCRP; conditions: in vitro; ref Vaidyanathan et al., 2016; cited from earlier work
P-gp = conditions: co-treatment with vincristine; ref Robey et al., 2004; Shafran et al., 2005; cited from earlier work
[7] = read-out: cancer cell growth inhibition potency (range over cell lines)

T1 sequence (P04818 whole entry): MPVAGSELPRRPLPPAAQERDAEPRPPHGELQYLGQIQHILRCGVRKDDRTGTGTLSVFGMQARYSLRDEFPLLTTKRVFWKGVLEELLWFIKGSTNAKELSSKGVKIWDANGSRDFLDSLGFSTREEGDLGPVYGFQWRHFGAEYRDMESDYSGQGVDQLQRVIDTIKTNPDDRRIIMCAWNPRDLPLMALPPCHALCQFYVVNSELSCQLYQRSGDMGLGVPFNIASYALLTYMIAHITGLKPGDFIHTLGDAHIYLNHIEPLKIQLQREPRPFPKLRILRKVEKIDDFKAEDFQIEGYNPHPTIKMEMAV

O=c1[nH]cc(F)c(=O)[nH]1 [Compound 5-FU, 5-fluorouracil, reference compound]
sub-G0/G1, HCT116 cells, plus SAINT-Protein (HCT116 cells [1]): about 40%
% of cells G0/G1, HCT116 cells (HCT116 cells [1]): 54.45%
% of cells G2/M, HCT116 cells (HCT116 cells [1]): 14.75%
% of cells S, HCT116 cells (HCT116 cells [1]): 12.55%
% of cells sub G0/G1, HCT116 cells (HCT116 cells [1]): 15.1%
effect of SAINT-Protein transfection on sub-G0/G1 phase, A2780 cells (A2780 cells [2]): did not benefit from SAINT-Protein transfection

O=C(CSc1ccc([N+](=O)[O-])cc1)Nc1ccc(C(=O)O)cc1 [Compound E1]
IC50 (recombinant hTS): 8 µM and 8.2 µM
IC50 (HT29 cells; Homo sapiens, HT-29, 72 h, read-out: Cellular IC50 values HT29): > 100 µM
IC50 (HCT116 cells [3]): > 100 µM
cellular activity at 100 µM ([4]; 100 µM, five cancer cell lines of Table 1): no observed cellular activity
IC50 ([4]; read-out: IC50 with SAINT-Protein, OC cell lines): 20 to 40 µM
effect of SAINT-Protein transfection on cytotoxic activity, tested cell lines ([4]; with SAINT-Protein versus compound alone): benefits considerably; also recorded: showed cytotoxic activity when associated with the SAINT-Protein

NC(=O)c1ccc(NC(=O)C(Sc2ccc([N+](=O)[O-])cc2)c2ccccc2)cc1 (stereo not shown) [Compound E5, 2-Phenyl-2-(4-nitrophenylthio)-N-(4-carboxamidophenyl)acetamide]
Ki (recombinant hTS): 40 µM
IC50 (IGROV-1 cells): 69.9 ± 8 µM
effect of SAINT-Protein transfection on cell survival, HT29 (HT29 cells): no significant effect
interaction with elacridar (synergism quotient analysis) ([4]; 200 nM elacridar 2 h pre-treatment, 72 h, A2780, IGROV-1, HT29): synergized by elacridar in all cell lines tested
effect of SAINT-Protein transfection on cell killing, A2780 and A2780/CP ([4]; A2780 and A2780/CP, 72 h, Figure 5A, B): not significantly enhanced
IC50 [4, 7]: 25 to 70 µM

CS(=O)(=O)c1ccc2nc(NC(=O)C(Sc3ccc([N+](=O)[O-])cc3)c3ccccc3)sc2c1 (stereo not shown) [Compound E7, phenyl-2-(4-nitrophenylthio)-N-(6-methanesulfonylbenzothiazol-2-yl)acetamide]
Ki (recombinant hTS): 7 µM
IC50 (A2780/CP cells; Homo sapiens, A2780C/P, 72 h, read-out: IC50 A2780/CP cells, without SAINT-Protein (Figure 4A)): 15.3 ± 5 µM
SQ with SAINT-Protein, A2780/CP cells, 5 μM (A2780/CP cells; compound 5 μM + SAINT-Protein): 1.54±0.45
SQ with SAINT-Protein, A2780/CP cells, 12 μM (A2780/CP cells; compound 12 μM + SAINT-Protein): 1.34±0.1
SQ with SAINT-Protein, A2780/CP cells, 25 μM (A2780/CP cells; compound 25 μM + SAINT-Protein): 1.15±0.03
effect of SAINT-Protein transfection on cell survival, HT29 (HT29 cells): more favoured by the presence of SAINT-Protein
IC50 [4, 7]: 10 to 37 µM
sub-G0/G1, HCT116 cells, plus SAINT-Protein (HCT116 cells [1]): ~60%
% of cells G0/G1, HCT116 cells (HCT116 cells [1]): 58.15%
% of cells G2/M, HCT116 cells (HCT116 cells [1]): 11.67%
% of cells S, HCT116 cells (HCT116 cells [1]): 10.65%
% of cells sub G0/G1, HCT116 cells (HCT116 cells [1]): 17.53%
effect of SAINT-Protein transfection on sub-G0/G1 phase, A2780 cells (A2780 cells [2]): significantly increased the percentage of cells in the sub-G0/G1 phase
anticancer profile in mouse model (human pancreatic cancer): superior to that of 5-FU
IC50 (A2780 cells [5]; read-out: IC50 A2780 cells, with SAINT-Protein (Figure 4A)): 5.6 µM
IC50 (A2780 cells [5]; read-out: IC50 A2780 cells, without SAINT-Protein (Figure 4A)): 10.9 µM
SQ with SAINT-Protein, A2780 cells, 5 μM (A2780 cells [5]; compound 5 μM + SAINT-Protein): 1.10±0.05
SQ with SAINT-Protein, A2780 cells, 12 μM (A2780 cells [5]; compound 12 μM + SAINT-Protein): 1.07±0.01
SQ with SAINT-Protein, A2780 cells, 25 μM (A2780 cells [5]; compound 25 μM + SAINT-Protein): 0.90±0.1

COc1cc2c(cc1OC)CN(CCc1ccc(NC(=O)c3cccc4c(=O)c5cccc(OC)c5[nH]c34)cc1)CC2 [Elacridar, N-[4-[2-(6,7-dimethoxy-3,4-dihydro-1H-isoquinolin-2-yl)ethyl]phenyl]-5-methoxy-9-oxo-10H-acridine-4-carbox amide]
concentration reversing multidrug resistance [6]: 20 to 100 nM

O=c1[nH]c(=O)n([C@H]2C[C@H](O)[C@@H](COP(=O)(O)O)O2)cc1F [FdUMP, 5-fluorodeoxyuridine-5′-monophosphate, reference compound]
IC50 (recombinant hTS): 0.8 µM

COc1cc2c(cc1OC)CN(CCc1ccc(NC(=O)c3cc(OC)c(OC)cc3NC(=O)c3cnc4ccccc4c3)cc1)CC2 [Tariquidar, 3-Quinolinecarboxamide, N-[2-[[[4-[2-(3,4-dihydro-6,7-dimethoxy-2(1H)-isoquinolinyl)ethyl]phenyl]amino]carbonyl]-4,5-dimethoxyphenyl]-]
concentration giving complete reversal of resistance (P-gp): 25 to 80 nM
